The structures appear in SMILES notation.

Assay type in all cases: functional
Test [1] has as its system Staphylococcus aureus. Nature of the test: Synergistic antibacterial activity against methicillin-resistant Staphylococcus aureus assessed as fractional inhibitory concentration index in presence of cefoxitin.
Test [2] relates to Staphylococcus aureus. Nature of the test: Synergistic antimicrobial activity against methicillin-resistant Staphylococcus aureus assessed as fractional inhibitory concentration index in presence of amoxicillin.
For test [3], the system named is Staphylococcus aureus. Nature of the test: Synergistic antibacterial activity against methicillin-resistant Staphylococcus aureus assessed as fractional inhibitory concentration index incubated for 24 hrs in presence of cefazolin by checkerboard assay.
The subject of test [4] is Staphylococcus aureus. Nature of the test: Synergistic antimicrobial activity against methicillin resistant Staphylococcus aureus assessed as fractional inhibitory concentration index incubated for 24 hrs in presence of Oxacillin by checkerboard assay.
For test [5], the system named is Staphylococcus aureus. Briefly: Synergistic antibacterial activity against methicillin-resistant Staphylococcus aureus assessed as fractional inhibitory concentration index incubated for 24 hrs in presence of Nafcillin by checkerboard assay.
Test [6] relates to Staphylococcus aureus. Nature of the test: Synergistic antimicrobial activity against methicillin resistant Staphylococcus aureus assessed as fractional inhibitory concentration index incubated for 24 hrs in presence of oxytetracycline by checkerboard assay.
The subject of test [7] is Staphylococcus aureus. Briefly: Synergistic antimicrobial activity against methicillin resistant Staphylococcus aureus assessed as fractional inhibitory concentration index incubated for 24 hrs in presence of daptomycin by checkerboard assay.
Test [8] concerns Staphylococcus aureus. Nature of the test: Synergistic antimicrobial activity against methicillin resistant Staphylococcus aureus assessed as fractional inhibitory concentration index incubated for 24 hrs in presence of linezolid by checkerboard assay.
For test [9], the system named is Staphylococcus aureus. Nature of the test: Synergistic antibacterial activity against methicillin resistant Staphylococcus aureus clinical isolate 003 assessed as fractional inhibitory concentration in presence of norfloxacin.
The test system of test [10] is Staphylococcus aureus. Briefly: Synergistic antibacterial activity against methicillin resistant Staphylococcus aureus assessed as fractional inhibitory concentration index in presence of erythromycin incubated for 24 hrs by checkerboard assay.
The subject of test [11] is Staphylococcus aureus. Briefly: Antibacterial activity against methicillin-resistant Staphylococcus aureus ATCC 33592 assessed as reduction in bacterial growth measured for 24 hrs by CLSI protocol based two-fold serial dilution method.
Test [12] relates to Staphylococcus aureus. Nature of the test: Antibacterial activity against methicillin-resistant Staphylococcus aureus assessed as reduction in microbial growth by CLSI based broth microdilution method. (Dilution methods test growth across graded concentrations, often in twofold steps.)

As to `CC1(C)CCC2=C(O1)c1ccccc1C(=O)C2=O` [LAPACHONE], the figures for the “fractional inhibitory concentration index (FICI)” value with Staphylococcus aureus [1] and with Staphylococcus aureus [2] were 0.25 and 0.07, respectively.
On to `Cc1cc(O)c2c(=O)c3c(O)cc(O)c4c5c(O)cc(O)c6c(=O)c7c(O)cc(C)c8c1c2c(c34)c(c78)c65` [HYPERICIN], for which the “fractional inhibitory concentration index (FICI)” value in the test on Staphylococcus aureus [3] was 0.19; with Staphylococcus aureus [4] it was 0.1; in the test with Staphylococcus aureus [5], 0.19.
Regarding `CC[C@@H]1CC[C@@]2(C)C(C)=CCC[C@@H]2[C@@]1(C)CCC1=CC(=O)O[C@@H]1O`, the “fractional inhibitory concentration index (FICI)” value worked out at 0.321 with Staphylococcus aureus [6], 0.223 in the test with Staphylococcus aureus [4], 0.32 in the test with Staphylococcus aureus [7] and 0.34 in the test with Staphylococcus aureus [8].
For `CC(C)=CCC/C(C)=C\C=O`, the “fractional inhibitory concentration index (FICI)” value in the test with Staphylococcus aureus [9] and in the test on Staphylococcus aureus [10] was below 0.5 each time.
One may read the MIC as the smallest concentration in the dilution series that meets the test's criterion for growth inhibition. For the molecule `Oc1cc(O)c2c(c1)O[C@H](c1ccc(O)c(O)c1)[C@@H](O)C2` [CIANIDANOL], the MIC with Staphylococcus aureus [11] was above 1020 µg/mL.
For the molecule `C=CC(C)(C)c1cc(-c2coc3cc(O)cc(O)c3c2=O)c(CC=C(C)C)c(O)c1O`, the MIC in the test with Staphylococcus aureus [12] was found to be 12.5 µg/mL.

The values are drawn from ChEMBL document CHEMBL6153028, “Understanding the synergistic sensitization of natural products and antibiotics: An effective strategy to combat MRSA” (2025).
